Converted amounts (≈) assume the structure as drawn. “And” between values parts separate entries of the source, which are not always exact repeats. Equal values may be shown once. “Also recorded” adds a separate entry of the source. Read-outs that look alike come from different tables or passages of the source.
What was measured:
[1] = eLogD at pH 7.4, miniaturized shake flask method; format: physicochemical; conditions: for logD at 2 h: 1-octanol/PBS (1:1, v/v), pH 7.4, pH 7.4, miniaturized shake flask method
Protocol: eLogD at pH 7.4 was determined using a miniaturized shake flask method. A solution of a presaturated mixture of 1-octanol and phosphate-buffered saline (PBS) (1:1, v/v) and the test compound (75 μM) was incubated at 25 °C with constant shaking (850 rpm) for 2h. After incubation, the organic and aqueous phases were separated, and samples of each phase were transferred to a plate for dilution. […] The samples were quantitated using LC-MS/MS. The experiment was carried out in duplicate. Propranolol, Amitriptyline, and Midazolam were used as reference standards.

[2] = Kinetic solubility at pH 7.4; format: physicochemical; conditions: phosphate-buffered saline, 25 °C, pH 7.4, aqueous buffer, kinetic from dmso stock; read-out: Kinetic solubility (Sol)
Protocol: Kinetic solubility assay was performed using UV–vis detection. […] The samples were filtered using a multiscreen solubility filter plate. The filtrate was diluted by 50% with MeCN. A five-point linearity curve was prepared in PBS/MeCN (1:1, v/v) at 200, 150, 75, 25, and 2.5 μM. Blank, linearity, and test samples (n = 2) were transferred to a UV-readable plate, and the plate was scanned for absorbance. Best-fit calibration curves were constructed using the calibration standards and used to determine the test sample solubility. The experiment was carried out in duplicate. Diethylstilbestrol, Haloperidol, and Diclofenac Sodium were used as reference standards.

[3] = Rat hepatocyte stability; format: in vitro ADME; conditions: for R Heps (Clint): rat hepatocyte stability
Protocol: The reaction was terminated with the addition of ice-cold MeCN at designated time points. The samples were then centrifuged (4200 rpm) for 20 min at 20 °C, and the supernatant was half diluted in water and then analyzed using LCMS/MS. The % parent compound remaining, half-life (t 1/2), and clearance (CLint) were calculated using standard methodology. The experiment was carried out in duplicate. Diltiazem, 7-Ethoxy Coumarin, Propranolol, and Midazolam were used as reference standards.

[4] = Resazurin assay for cytotoxicity in HepG2 cells; format: cell-based, human; conditions: human, HepG2 cells; HepG2 cell line, 72 h, resazurin
Protocol: (§1) HepG2 cells were trypsinized, counted, and distributed in a 96-well plate at a density of 30,000 cells per well (180 μL). The plate was incubated at 37 °C and 5% CO2 for 24 h. Following incubation, 20 μL of serial dilutions of the tested compounds were added to the wells, with concentrations ranging from 30 to 0.47 μM. The plate was incubated for an additional 72 h at 37 °C and 5% CO2. Untreated cells served as positive controls, while wells containing only medium were used as negative controls. Postincubation, microscopy was employed to determine the highest compound concentration for treatment results. […] Concentration–response curves were generated, and half-maximal inhibitory concentration (CC50) values were determined using nonlinear regression analysis.

[5] = test system: P. falciparum 3D7 strain (Pf3D7); test: Antiplasmodial activity against P. falciparum 3D7 blood-stage parasites (SYBR Green, 72 h); format: cell-based, Plasmodium falciparum
[6] = Human liver microsome stability; format: in vitro ADME; conditions: human microsomal intrinsic clearance; for microsomal CLint at 1 μM: human, pooled human liver microsomes, read-out: hMics, human microsome Clint
Protocol: A solution of the test compounds in phosphate buffer solution (1 μM) was incubated in pooled human or mouse liver microsomes (0.5 mg/mL) for 0, 5, 20, 30, 45, and 60 min at 37 °C in the presence and absence of an NADPH regeneration system (NRS). The tests were conducted by […], India. The reaction was terminated with the addition of ice-cold acetonitrile, containing a […] standard, at designated time points. The sample was centrifuged (4200g) for 20 min at 20 °C and the supernatant was diluted by half in water and then analyzed by LC-MS/MS. The % parent compound remaining, half-life (t 1/2) and clearance (CLint) were calculated using standard methodology. The experiment was carried out in duplicate. Verapamil, diltiazem, phenacetin, and imipramine were used as reference standards.

[7] = test system: P. falciparum K1 strain; test: Antiplasmodial activity against resistant P. falciparum K1; format: cell-based; conditions: Plasmodium falciparum, 3D7 / K1; resistant K1, in parallel with 3D7; read-out: IC50^K1 ± SD
[8] = test system: P. falciparum Dd2 strain; test: Antiplasmodial activity against resistant P. falciparum Dd2; format: cell-based; conditions: Plasmodium falciparum, 3D7 / DD2; resistant Dd2, in parallel with 3D7; read-out: IC50^Dd2 ± SD
[9] = test system: synchronized P. falciparum parasites (3D7 strain); test: P. falciparum asexual blood stage-specificity assay (8 h exposures); format: cell-based, Plasmodium falciparum
[10] = test system: P. falciparum field isolates from Brazil; test: Ex vivo drug susceptibility of P. falciparum field isolates; format: cell-based, Plasmodium falciparum; conditions: Plasmodium falciparum; for EC50: read-out: median EC50 against P. falciparum isolates; for IC50: read-out: median IC50 (range), P. falciparum (7)
[11] = test system: P. falciparum 3D7 clone; test: Ex vivo schizont maturation assay, 3D7 laboratory strain control; format: cell-based; conditions: Plasmodium falciparum
[12] = test system: P. falciparum 3D7 (chloroquine-sensitive); test: Effect of verapamil on inhibitory activity in P. falciparum 3D7; format: cell-based; conditions: Plasmodium falciparum
[13] = test system: P. falciparum Dd2 (chloroquine resistance); test: Effect of verapamil on inhibitory activity in P. falciparum Dd2; format: cell-based; conditions: Plasmodium falciparum
[14] = test system: P. vivax field isolates from Brazil; test: Ex vivo drug susceptibility of P. vivax field isolates; format: cell-based; conditions: Plasmodium vivax; for EC50: read-out: median EC50 against P. vivax field isolates; for IC50: read-out: median IC50 (range), P. vivax (9)
[15] = test system: P. falciparum NF54 strain; test: Antiplasmodial activity against P. falciparum NF54 (SYBR Green, 72 h); format: cell-based, Plasmodium falciparum; conditions: read-out: NF54-IC50
[16] = test system: P. falciparum; test: Parasite reduction ratio (PRR) assay, in vitro rate of kill; format: cell-based, Plasmodium falciparum
Text: This library was designed to maximize chemical diversity and novelty of compounds with physicochemical properties consistent with potential for further development.

[17] = test system: HepG2 cells; test: Resazurin assay for cytotoxicity in HepG2 cells; format: cell-based, human; conditions: Homo sapiens, HepG2
Protocol: as §1

[18] = test system: P. falciparum (3D7 strain) digestive vacuole; test: Digestive vacuole homeostasis, acridine orange fluorescence; format: cell-based, Plasmodium falciparum; conditions: 10 μM, 3 min treatment, isolated parasites
Protocol: The sample was incubated for 40 min at 37 °C. […] Fluorescence was measured in a Hitachi F-7000 fluorimeter (Tokyo, Japan) by continuous measurement of the fluorescence (λex = 488 nm; λem = 560 nm) at 37 °C. Experiments were performed in triplicate.

[19] = Plasmodium falciparum, 3D7, 72 h, 3D7 strain, 72 h, SYBR Green, read-out: Pf3D7-IC50
[20] = Plasmodium falciparum, 3D7 / DD2, sensitive 3D7, in parallel with K1 and Dd2, read-out: IC50^3D7 ± SD
[21] = 3D7 strain, 72 h, SYBR Green, read-out: Pf3D7-IC50

## CN1CCC(N(Cc2cccnc2)C(=O)c2cc3cc(Cl)ccc3[nH]2)CC1 [Compound 5t, 5-Chloro-N-(1-methylpiperidin-4-yl)-N-(pyridin-3-ylmethyl)-1H-indole-2-carboxamide]
[1]
  logD at 2 h: 2.3
[2]
  solubility kinetic at 2 h: > 200 µM
[3]
  R Heps (Clint): 50 μL/min/10^6
[4]
  CC50 at 72 h: > 30000 nM
[5]; [19]
  IC50: 370 ± 40 nM
[5]; [20]
  IC50: 300 ± 100 nM
[6]
  microsomal CLint at 1 μM: 36 µL/min/mg
[7]
  IC50: 500 ± 300 nM
[8]
  IC50: 700 ± 200 nM

## CCN(CC)CCCC(C)Nc1ccnc2cc(Cl)ccc12 (stereo not drawn) [chloroquine, reference compound]
[9]
  timing of peak activity (lowest IC50^8h) in asexual blood stages: peak activity at ring and trophozoite stages
[10]
  EC50: 1200 nM
  IC50: 1200 nM
[11]; 3D7, read-out: P. falciparum 3D7 IC50
  IC50: 12 nM
[12]; 3D7, read-out: IC50^3D7 (without VP)
  IC50: 39.8 nM
[12]; 3D7, read-out: IC50 in 3D7 strain
  IC50: 40 to 50 nM
[13]; DD2, read-out: IC50^Dd2 (without VP)
  IC50: 655 nM
[14]
  EC50: 295 nM
  IC50: 295 nM

## C[C@H]1[C@H](OC(=O)CCC(=O)O)O[C@@H]2O[C@@]3(C)CC[C@H]4[C@H](C)CC[C@@H]1[C@@]24OO3 [artesunate]
[10]; 7 clinical isolates, ex vivo
  IC50: 0.6 nM
[10]; ex vivo
  EC50: 0.6 nM
[11]; ex vivo assay conditions, 3D7 control, read-out: P. falciparum 3D7 IC50
  IC50: 8 nM
[14]; 9 clinical isolates, ex vivo
  IC50: 1 nM
[14]; ex vivo
  EC50: 1 nM

## O=C(c1cc2cc(Cl)ccc2[nH]1)N(Cc1cccnc1)CC1CCNC1 (stereo not drawn) [Compound 6a, 5-Chloro-N-(pyridin-3-ylmethyl)-N-(pyrrolidin-3-ylmethyl)-1H-indole-2-carboxamide]
[15]; NF54 strain
  IC50: 800 ± 400 nM
[15]; Plasmodium falciparum, NF54, NF54 strain
  IC50: 840 nM
[16]
  Parasite Reduction Rate (PRR), rate of kill: as fast as that of CQ; also recorded: Fast-acting inhibitor
[1]
  logD at 2 h: 0.62
[1]; pH 7.4, miniaturized shake flask method
  LogD: 0.6
[2]
  solubility kinetic at 2 h: 193 µM (≈ 71.2 µg/mL)
[3]; pooled rat hepatocytes, rat hepatocyte intrinsic clearance, read-out: Rat hep Clint
  hepatocyte CLint at 1 μM: 14.6 µL/min/1e6 cells
[3]
  R Heps (Clint): 15 μL/min/10^6
[4]
  CC50 at 72 h: > 30000 nM
[17]
  IC50: > 20000 nM
[5]; [21]
  IC50: 1400 nM and 1000 nM
[5]; [19]
  IC50: 1390 nM
[6]
  hMics, human microsome Clint: 5 µL/min/mg
  microsomal CLint at 1 μM: 4.6 µL/min/mg
[7]
  IC50: 6400 ± 100 nM
[8]
  IC50: 9100 ± 100 nM

## O=C(c1cc2cc(C(F)(F)F)ccc2[nH]1)N(Cc1cccnc1)C1CCNCC1 [Compound 6y, N-(Piperidin-4-yl)-N-(pyridin-3-ylmethyl)-5-(trifluoromethyl)-1H-indole-2-carboxamide]
[1]
  logD at 2 h: 1.4
[2]
  solubility kinetic at 2 h: > 200 µM
[3]
  R Heps (Clint): 4 μL/min/10^6
[4]
  CC50 at 72 h: > 30000 nM
[5]; [19]
  IC50: 220 ± 90 nM
[5]; [20]
  IC50: 300 ± 100 nM
[6]
  microsomal CLint at 1 μM: 17 µL/min/mg
[7]
  IC50: 2100 ± 200 nM
[8]
  IC50: 1600 ± 300 nM

## Cl.O=C(c1cc2cc(Cl)ccc2[nH]1)N(Cc1cccnc1)C1CCNCC1 [Compound 6x, 5-Chloro-N-(piperidin-4-yl)-N-(pyridin-3-ylmethyl)-1H-indole-2-carboxamide hydrochloride]
[1]
  logD at 2 h: 1
[2]
  solubility kinetic at 2 h: 196 µM
[3]
  R Heps (Clint): 2 μL/min/10^6
[4]
  CC50 at 72 h: > 30000 nM
[5]; [21]
  IC50: 330 ± 80 nM
[5]; [19]
  IC50: ~300 nM
[5]; [20]
  IC50: 400 ± 300 nM
[6]
  microsomal CLint at 1 μM: 3 µL/min/mg
[7]
  IC50: 5200 ± 200 nM
[12]; 3D7, verapamil experiment, read-out: IC50 in 3D7 strain
  IC50: ~150 nM
[12]; read-out: IC50^3D7 (10 μM VP), 3D7, presence of 10 μM verapamil
  IC50: 214 nM
[12]; 3D7, absence of verapamil, read-out: IC50^3D7 (without VP)
  IC50: 148 nM
[13]; read-out: IC50^Dd2 (10 μM VP), Dd2, presence of 10 μM verapamil
  IC50: 560 nM
[13]; Dd2, absence of verapamil, read-out: IC50^Dd2 (without VP)
  IC50: 2940 nM
[8]
  IC50: 4700 ± 800 nM

## COc1ccc2[nH]c(C(=O)N(Cc3cccnc3)CC3CCNC3)cc2c1 (stereo not drawn) [Compound 6d, 5-Methoxy-N-(3-pyridylmethyl)-N-(pyrrolidin-3-ylmethyl)-1H-indole-2-carboxamide]
[1]
  logD at 2 h: -0.4
[2]
  solubility kinetic at 2 h: > 1000 µM
[3]
  R Heps (Clint): 4 μL/min/10^6
[5]; [19]
  IC50: > 10000 nM
[6]
  microsomal CLint at 1 μM: 7 µL/min/mg
[18]
  effect on digestive vacuole H+ homeostasis (acridine orange fluorescence): strong interaction

— publication PMC12531871, “Indole-2-carboxamides Optimization for Antiplasmodial Activity” (ACS Bio & Med Chem Au, 2025)
